pIC50: −log10 of the molar value. Like-named read-outs stand apart in the source and are kept apart here. Each block holds one molecule with its values, some of them ahead of it.
Key:
CCKB receptor = target: T1, CCKB receptor (Cavia porcellus, UniProt H0VZC5); assay: 125I-CCK-8 receptor binding assay, CCKB (guinea pig cerebral cortex membranes)
T1 construct: Male guinea pig brain tissues were prepared according to the modified method described by Saita et al; from tissue; host or cells: guinea pig cerebral cortex membranes
T1 sequence (H0VZC5 1-426): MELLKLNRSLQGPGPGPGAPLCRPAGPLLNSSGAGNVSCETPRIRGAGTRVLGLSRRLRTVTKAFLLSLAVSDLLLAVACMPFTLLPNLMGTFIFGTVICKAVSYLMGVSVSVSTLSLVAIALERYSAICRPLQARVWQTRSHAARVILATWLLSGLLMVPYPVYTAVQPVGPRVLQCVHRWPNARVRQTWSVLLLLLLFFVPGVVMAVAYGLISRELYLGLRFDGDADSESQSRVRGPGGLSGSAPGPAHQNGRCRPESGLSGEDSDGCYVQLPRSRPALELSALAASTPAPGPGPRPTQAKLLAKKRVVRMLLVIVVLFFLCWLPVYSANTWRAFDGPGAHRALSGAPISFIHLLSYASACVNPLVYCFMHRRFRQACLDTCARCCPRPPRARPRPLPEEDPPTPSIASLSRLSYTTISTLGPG
Protocol: (§1) Pharmacological Methods—^[125]I-CCK-8 Receptor Binding Assay
(§2) CCKA and CCKB receptor binding assays were performed, by using guinea pig cerebral cortex (CCKB) or rat pancreas (CCKA). Male guinea pig brain tissues were prepared according to the modified method described by Saita et al, [(1994), Characterization of YM022: its CCKB/gastrin receptor binding profile and antagonism to CCK-8-induced Ca2+mobilization., Eur. J. PharmacoL,269, 249-254]. Pancreatic membranes were prepared in a similar way but by Charpentier et al, [(1988), Cyclic cholecystokinin analogues with high selectivity for central receptors., Proc Natl Acad Sci USA, 85, 1968-1972]. For the in vivo CCK binding assay tissues were homogenised in ice cold sucrose (0.32 M, 25 ml) for 15 strokes at 500 rpm and centrifuged at 13000 rpm for 10 mins. The supernatant was re-centrifuged at 13000 rpm for 20 mins. The resulting pellet was re-dispersed to the required volume of buffer at 500 rpm and stored in aliquots at […].
(§3) Binding was achieved using a.radioligand ^125I-Bolton-Hunter labeled CCK, NEN at 25 pM. The samples were incubated {with membranes (0.1 mg/ml)} in 20 mM Hepes, 1 mM EGTA, 5 mM MgCl2, 150 mm NaCl, 0.25 mg/ml bacitracin at pH 6.5 for 2 hrs at RT and then […] by centrifugation at 1100 rpm for 5 minutes. The membrane pellets were washed twice with water and the bound radioactivity was measured in a Packard Cobra Auto-gamma counter (B5005). All binding assays were carried out with L-365, 260 (Bock, M. G., et. al., Benzodiazepine gastrin and brain cholecystokinin receptor ligands. L-365,260, J. Med. Chem. 1989, 32, 14-24) as an internal non-specific standard. Controls (no compound) were also added. All samples were made in duplicate and repeated twice. All compounds were initially screened for percentage inhibition at 20 μm.

CCKA receptor = target: T2, CCKA receptor (Rattus norvegicus, UniProt P30551); assay: 125I-CCK-8 receptor binding assay, CCKA (rat pancreas membranes); details: for Ratio A/B: ratio of CCKB and CCKA IC50 values
T2 construct: Pancreatic membranes were prepared in a similar way but by Charpentier et al; from tissue; host or cells: rat pancreas membranes
T2 sequence (P30551 1-444): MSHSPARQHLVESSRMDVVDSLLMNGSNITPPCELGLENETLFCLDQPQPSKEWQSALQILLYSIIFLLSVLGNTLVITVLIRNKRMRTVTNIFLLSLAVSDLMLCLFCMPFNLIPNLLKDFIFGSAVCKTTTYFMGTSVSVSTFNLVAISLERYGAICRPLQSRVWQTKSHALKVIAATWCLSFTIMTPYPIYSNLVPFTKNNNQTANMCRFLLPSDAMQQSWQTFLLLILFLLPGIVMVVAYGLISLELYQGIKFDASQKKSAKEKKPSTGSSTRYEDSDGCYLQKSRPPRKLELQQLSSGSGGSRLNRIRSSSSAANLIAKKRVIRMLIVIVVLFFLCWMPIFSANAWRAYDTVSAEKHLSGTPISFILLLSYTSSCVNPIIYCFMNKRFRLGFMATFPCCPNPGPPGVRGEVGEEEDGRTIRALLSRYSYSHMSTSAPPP
Protocol: as §1, §2, §3

[1] = Table 3, diphenyl pyrazolyl ureas, guinea pig cerebral cortex, 125I-Bolton-Hunter CCK 25 pM, read-out: IC50 CCKB
[2] = Table 4, diphenyl pyrazolinone amides, guinea pig cerebral cortex, 125I-Bolton-Hunter CCK 25 pM, read-out: IC50 CCKB
[3] = Table 4, diphenyl pyrazolinone amides, rat pancreas, 125I-Bolton-Hunter CCK 25 pM, read-out: IC50 CCKA
[4] = Table 2, phenylpyrazolinone amides, guinea pig cerebral cortex, 125I-Bolton-Hunter CCK 25 pM, read-out: IC50 CCKB
[5] = Table 2, phenylpyrazolinone amides, rat pancreas, 125I-Bolton-Hunter CCK 25 pM, read-out: IC50 CCKA
[6] = Table 1, phenyl pyrazolinone ureas, guinea pig cerebral cortex, 125I-Bolton-Hunter CCK 25 pM, read-out: IC50 CCKB
[7] = Table 3, diphenyl pyrazolyl ureas, rat pancreas, 125I-Bolton-Hunter CCK 25 pM, read-out: IC50 CCKA

Compound: Cc1c(NC(=O)Nc2ccc(Cl)cc2)c(=O)n(-c2ccccc2)n1-c1ccccc1 [Example 32]
pIC50 (CCKB receptor; [1]): < 4.70

Compound: Cc1c(NC(=O)c2cc3ccccc3[nH]2)c(=O)n(-c2ccccc2)n1-c1ccccc1 [Example 36, N-(5-Methyl-3-oxo-1,2-diphenyl-2,3dihydro-1H-pyrazol-4yl)-1H-indole-2-carboxamide]
pIC50 (CCKB receptor; [2]): 7.52
pIC50 (CCKA receptor; [3]): 7.70
Ratio A/B (CCKA receptor; Table 4): 1.5

Compound: COc1ccc(NC(=O)Nc2c(C)n(-c3ccccc3)n(-c3ccccc3)c2=O)cc1 [Example 29]
pIC50 (CCKB receptor; [1]): < 4.70

Compound: Cc1c(NC(=O)Cc2c[nH]c3ccccc23)c(=O)n(-c2ccccc2)n1-c1ccccc1 [Example 38]
pIC50 (CCKB receptor; [2]): 5.60
pIC50 (CCKA receptor; [3]): 7.70
Ratio A/B (CCKA receptor; Table 4): 125

Compound: Cc1c(NC(=O)CCCc2c[nH]c3ccccc23)c(=O)n(-c2ccccc2)n1-c1ccccc1 [Example 40, N-(5Methyl-3-oxo-1,2-diphenyl-2,3-dihydro-1H-pyrazol-4yl)-4-(1H-indol-3-yl)butanamide]
Ratio A/B (CCKA receptor; Table 4): 1

Compound: Cc1c(NC(=O)Nc2ccc(Br)cc2)c(=O)n(-c2ccccc2)n1-c1ccccc1 [Example 24, N-(4-Bromophenyl)-N′-(5-methyl-3-oxo-1,2-diphenyk-2,3-dihydro-1H-pyrazol-4-yl)urea]
pIC50 (CCKB receptor; [1]): < 4.70

Compound: Cc1c(NC(=O)NC(C)(C)C)c(=O)n(-c2ccccc2)n1-c1ccccc1 [Example 35]
pIC50 (CCKB receptor; [1]): 6.00

Compound: Cc1c(NC(=O)Nc2ccccc2[N+](=O)[O-])c(=O)n(-c2ccccc2)n1-c1ccccc1 [Example 25, N-(5-Methyl-3-oxo-1,2-diphenyl-2,3-dihydro-1H-pyrazol-4yl)N′-2-nitrophenylurea]
pIC50 (CCKB receptor; [1]): 5.12

Compound: Cc1c(NC(=O)CCc2c[nH]c3ccccc23)c(=O)n(-c2ccccc2)n1-c1ccccc1 [Example 39, N-(5-Methyl-3-oxo-1,2-diphenyl-2,3-dihydro-1H-pyrazol-4-yl)-3-(1H-indol-3-yl)propanamide]
pIC50 (CCKB receptor; [2]): 5.70
pIC50 (CCKA receptor; [3]): 7.60
Ratio A/B (CCKA receptor; Table 4): 80

Compound: Cc1c(NC(=O)NC2CCCCC2)c(=O)n(-c2ccccc2)n1C [Example 14]
pIC50 (CCKB receptor; [6]): < 5.00

Compound: Cc1c(NC(=O)Nc2cccc3ccccc23)c(=O)n(-c2ccccc2)n1-c1ccccc1 [Example 34]
pIC50 (CCKB receptor; [1]): < 4.70

Compound: Cc1c(NC(=O)c2c[nH]c3ccccc23)c(=O)n(-c2ccccc2)n1C [Example 18]
pIC50 (CCKB receptor): 4.82
pIC50 (CCKA receptor): 5.70

Compound: Cc1ccccc1NC(=O)Nc1c(C)n(-c2ccccc2)n(-c2ccccc2)c1=O [Example 30]
pIC50 (CCKB receptor; [1]): < 4.70

Compound: Cc1c(NC(=O)NC2CCCCC2)c(=O)n(-c2ccccc2)n1-c1ccccc1 [Example 27]
pIC50 (CCKB receptor; [1]): 6.07

Compound: Cc1c(NC(=O)c2c[nH]c3ccccc23)c(=O)n(-c2ccccc2)n1-c1ccccc1 [Example 37, N-(5-Methyl-3-oxo-1,2-diphenyl-2,3-dihydro-1H-pyrazol-4yl)-1H-indole-3-carboxamide]
pIC50 (CCKB receptor; [2]): 5.46
pIC50 (CCKA receptor; [3]): 5.70
Ratio A/B (CCKA receptor; Table 4): 1.8

The remaining lines, values ahead:

pIC50 (CCKB receptor; [4]): 6.05
pIC50 (CCKA receptor; [5]): 7.10
Ratio A/B (CCKA receptor; Table 2): 11.3
Compound: Cc1c(NC(=O)c2cc3ccccc3[nH]2)c(=O)n(-c2ccccc2)n1C [Example 16]

pIC50 (CCKB receptor; [6]): < 4.70
Compound: Cc1ccc(NC(=O)Nc2c(C)n(C)n(-c3ccccc3)c2=O)cc1 [Example 9]

pIC50 (CCKB receptor; [4]): 5.40
pIC50 (CCKA receptor; [5]): 6.00
Ratio A/B (CCKA receptor; Table 2): 4
Compound: Cc1c(NC(=O)CCc2c[nH]c3ccccc23)c(=O)n(-c2ccccc2)n1C [Example 17, N-(1,5-Dimethyl-3-oxo-2-phenyl-2 3dihydro-1H-pyrazol-4yl)-3-(1H-indol-3-yl)propanamide]

pIC50 (CCKB receptor; [6]): < 5.00
Compound: COc1ccc(NC(=O)Nc2c(C)n(C)n(-c3ccccc3)c2=O)cc1 [Example 6]

pIC50 (CCKB receptor; [6]): 5.30
Compound: Cc1cccc(NC(=O)Nc2c(C)n(C)n(-c3ccccc3)c2=O)c1 [Example 8]

pIC50 (CCKB receptor; [6]): 5.15
Compound: Cc1c(NC(=O)Nc2ccc(Br)cc2)c(=O)n(-c2ccccc2)n1C [Example 11]

pIC50 (CCKB receptor; [1]): 5.52
Compound: Cc1c(NC(=O)Nc2ccccc2)c(=O)n(-c2ccccc2)n1-c1ccccc1 [Example 26, N-(5-Methyl-3oxo-1,2diphenyl-2,3-dihydro-1H-pyrazol4-yl)—N′-phenylurea]

pIC50 (CCKB receptor; [6]): 5.60
Compound: Cc1c(NC(=O)Nc2ccc(Cl)cc2)c(=O)n(-c2ccccc2)n1C [Example 3, N-(4-chlorophenyl)-N′-(1,5-dihiethyl-3-oxo-2-phenyl-2,3-dihydro-1H-pyrazol-4-yl)urea]

pIC50 (CCKB receptor; [1]): 7.46
pIC50 (CCKA receptor; [7]): 8.00
Compound: COc1cccc(NC(=O)Nc2c(C)n(-c3ccccc3)n(-c3ccccc3)c2=O)c1 [Example 21, N-(5-methyl-3-oxo-1,2-diphenyl-2,3-dihydro-1H-pyrazol-4-yl)N′-3-methoxyphenylurea]

pIC50 (CCKB receptor; [6]): < 5.00
Compound: Cc1c(NC(=O)Nc2cccc(Cl)c2)c(=O)n(-c2ccccc2)n1C [Example 10]

pIC50 (CCKB receptor; [1]): < 4.70
Compound: Cc1ccc(NC(=O)Nc2c(C)n(-c3ccccc3)n(-c3ccccc3)c2=O)cc1 [Example 31]

pIC50 (CCKB receptor; [1]): 7.60
pIC50 (CCKA receptor; [7]): 7.70
Compound: Cc1cccc(NC(=O)Nc2c(C)n(-c3ccccc3)n(-c3ccccc3)c2=O)c1 [Example 22, N-(5-Methyl-3-oxo-1,2-diphenyl-2,3-dihydro-1H-pyrazol4-yl)N′-3-methylphenylurea]

pIC50 (CCKB receptor; [6]): < 4.70
Compound: Cc1c(NC(=O)Nc2ccccc2[N+](=O)[O-])c(=O)n(-c2ccccc2)n1C [Example 12]

pIC50 (CCKB receptor; [4]): 5.05
pIC50 (CCKA receptor; [5]): 5.70
Compound: Cc1c(NC(=O)Cc2c[nH]c3ccccc23)c(=O)n(-c2ccccc2)n1C [Example 19]

From US20070185115A1, “Novel ureido-and amido-pyrazolone derivatives” (Aston University, priority 2003, published 2007)
